According to US11046854B2, “Slippery liquid-infused porous surfaces that prevent microbial surface fouling” (Wisconsin Alumni Research Foundation, priority 2016, dated 2021):

How the values were obtained:
Type in all cases: physicochemical
[1] = Water droplet sliding velocity on compound-loaded SLIPS; conditions: 10 μL water droplets, SLIPS loaded with the compound, tilt angle 10°; mean and standard error of six replicates
Source text: All QSI-loaded SLIPS used in this study contained 240 nmol of compound per substrate and all DMABI-loaded SLIPS contained 300 nmol of compound.

[2] = Release of QSIs and DMABI from SLIPS in PBS at 37° C. (UV/vis)
Protocol: Small Molecule Loading, Oil Infusion, and Characterization of Release. […] Immediately prior to use, loaded films were infused with silicone oil (for melting point and boiling point apparatuses; Sigma-Aldrich) by placing a 2.25 μL droplet of oil on each side and allowing the oil to spread over the entire surface. Excess oil was removed from the surface using tissue paper. […] At designated time points, substrates were removed from the incubation buffer and placed in fresh buffer before returning to the incubator. The release of the loaded agents into the incubation buffer was characterized using a UV/vis spectrophotometer.
Characterization of the release of QSIs and biofilm inhibitors from SLIPS.

[3] = Solubility of triclosan in silicone oil

Row | Slide Velocity [1] [mm/s] | loaded compound released ([2]; after the first 24 hours) | additional compound released ([2]; over the next 150 hours) | solubility in silicone oil [3] | SMILES
1 | 7.4 ± 0.2 | approximately 40% | approximately 40% |  | Cc1cc2nc(N)[nH]c2cc1C [DMABI, Dimethyl-2-aminobenzamidazole]
2 |  |  |  | soluble in silicone oil | Oc1cc(Cl)ccc1Oc1ccc(Cl)cc1Cl [Triclosan, 5-chloro-2-(2,4-dichlorophenoxy)phenol]
